Target: T1, BA/F3-FLT3-ITD + D835Y (Homo sapiens, UniProt P36888, D835Y, cells depend on it, form not given)
T1 sequence (P36888 with tags, fused parts or gaps INS600HVDFREYEYD/D835Y): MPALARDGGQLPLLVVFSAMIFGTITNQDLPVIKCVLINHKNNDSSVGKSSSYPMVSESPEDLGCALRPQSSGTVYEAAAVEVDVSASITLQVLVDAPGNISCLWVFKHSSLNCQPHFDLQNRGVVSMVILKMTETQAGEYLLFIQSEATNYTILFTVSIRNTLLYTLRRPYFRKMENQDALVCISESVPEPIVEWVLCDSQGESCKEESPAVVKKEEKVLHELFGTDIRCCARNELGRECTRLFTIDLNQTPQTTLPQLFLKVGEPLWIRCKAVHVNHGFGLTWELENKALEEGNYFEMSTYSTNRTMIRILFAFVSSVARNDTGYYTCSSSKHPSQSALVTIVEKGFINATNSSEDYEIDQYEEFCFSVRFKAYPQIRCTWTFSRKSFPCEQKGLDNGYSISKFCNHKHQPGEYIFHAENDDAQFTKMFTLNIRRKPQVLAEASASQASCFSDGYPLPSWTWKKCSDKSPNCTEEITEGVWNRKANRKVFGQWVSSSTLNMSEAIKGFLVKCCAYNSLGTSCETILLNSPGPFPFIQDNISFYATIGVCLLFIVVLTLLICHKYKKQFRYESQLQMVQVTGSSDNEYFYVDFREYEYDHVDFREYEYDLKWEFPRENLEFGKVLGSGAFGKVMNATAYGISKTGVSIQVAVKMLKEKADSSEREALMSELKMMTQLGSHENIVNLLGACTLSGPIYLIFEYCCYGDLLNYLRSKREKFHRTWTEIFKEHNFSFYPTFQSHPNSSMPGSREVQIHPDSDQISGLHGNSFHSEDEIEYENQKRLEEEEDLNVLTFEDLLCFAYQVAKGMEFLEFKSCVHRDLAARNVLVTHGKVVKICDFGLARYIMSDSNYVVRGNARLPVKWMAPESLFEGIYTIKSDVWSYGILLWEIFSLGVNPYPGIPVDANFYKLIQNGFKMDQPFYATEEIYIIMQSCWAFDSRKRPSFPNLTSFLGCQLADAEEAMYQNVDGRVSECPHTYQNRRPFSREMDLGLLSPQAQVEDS
Test: Engineered BA/F3 cell growth assay, FLT3 ITD/D835Y
Format: cell-based, murine
Conditions: 3 d growth
How it was run: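 IC50 derived from CellTiter-Glo ATP luminescence after 3 days at 37 °C, 5% CO2, over eight 1:3 dilutions from 1 μM (0.2% DMSO final). Cells: IL-3-independent murine Ba/F3 expressing full-length FLT3 ITD/D835Y, 1×10^4 per well.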

| GI50 | SMILES |
| --- | --- |
| 0.0001 to 10 µM | N#Cc1cc(-c2cc3cc(-c4ccc(CC(=O)Nc5cncc(C(F)(F)F)c5)cc4F)cnc3[nH]2)ccn1 [Compound P-0199, 2-[4-[2-(2-cyano-4-pyridyl)-1H-pyrrolo[2,3-b]pyridin-5-yl]-3-fluoro-phenyl]-N-[5-(trifluoromethyl)-3-pyridyl]acetamide] |
| 0.0001 to 10 µM | COc1ncc(NC(=O)Cc2ccc(-c3cnc(Nc4cn(C)cn4)nc3)cc2)cc1C(F)(F)F [Compound P-0149, N-[6-methoxy-5-(trifluoromethyl)-3-pyridyl]-2-[4-[2-[(1-methylimidazol-4-yl)amino]pyrimidin-5-yl]phenyl]acetamide] |
| 0.0001 to 10 µM | Cn1cc(Nc2ncc(-c3ccc(CC(=O)Nc4cnc(F)c(C(C)(F)F)c4)c(F)c3)cn2)cn1 [Compound P-0105, N-[5-(1,1-difluoroethyl)-6-fluoro-3-pyridyl]-2-[2-fluoro-4-[2-[(1-methylpyrazol-4-yl)amino]pyrimidin-5-yl]phenyl]acetamide] |
| 0.0001 to 10 µM | Cc1ncc(NC(=O)Cc2ccc(-c3cnc4[nH]nc(C)c4c3)c(F)c2)cc1C(F)(F)F [Compound P-0172, 2-[3-fluoro-4-(3-methyl-1H-pyrazolo[3,4-b]pyridin-5-yl)phenyl]-N-[6-methyl-5-(trifluoromethyl)-3-pyridyl]acetamide] |
| 0.0001 to 10 µM | CC(C)c1cc(NC(=O)Cc2ccc(-c3cnc(Nc4cnn(C)c4)nc3)cc2F)ccn1 [Compound P-0094, 2-[2-fluoro-4-[2-[(1-methylpyrazol-4-yl)amino]pyrimidin-5-yl]phenyl]-N-(2-isopropyl-4-pyridyl)acetamide] |
| 0.0001 to 10 µM | Cn1cc(Nc2ncc(-c3ccc(CC(=O)Nc4cc(C(F)(F)F)ncn4)cc3)cn2)cn1 [Compound P-0135, 2-[4-[2-[(1-methylpyrazol-4-yl)amino]pyrimidin-5-yl]phenyl]-N-[6-(trifluoromethyl)pyrimidin-4-yl]acetamide] |
| 0.0001 to 10 µM | CCn1cc(Nc2ncc(-c3ccc(CC(=O)Nc4cncc(C(F)(F)F)c4)cc3)cn2)cn1 [Compound P-0166, 2-[4-[2-[(1-ethylpyrazol-4-yl)amino]pyrimidin-5-yl]phenyl]-N-[5-(trifluoromethyl)-3-pyridyl]acetamide] |
| 0.0001 to 10 µM | Cn1cc(Nc2ncc(-c3ccc(CC(=O)Nc4ccnc(C5CC5)c4)cc3)cn2)cn1 [Compound P-0097, N-(2-cyclopropyl-4-pyridyl)-2-[4-[2-[(1-methylpyrazol-4-yl)amino]pyrimidin-5-yl]phenyl]acetamide] |
| 0.0001 to 10 µM | COc1nn(C[C@H](C)O)cc1Nc1ncc(-c2ccc(CC(=O)Nc3cnc(C)c(C(F)(F)F)c3)cc2)cn1 [Compound P-0180, 2-[4-[2-[[1-[(2S)-2-hydroxypropyl]-3-methoxy-pyrazol-4-yl]amino]pyrimidin-5-yl]phenyl]-N-[6-methyl-5-(trifluoromethyl)-3-pyridyl]acetamide] |
| 0.0001 to 10 µM | Cn1cc(Nc2ncc(-c3ccc(CC(=O)Nc4cnc(Cl)c(C(F)(F)F)c4)cc3)cn2)cn1 [Compound P-0145, N-[6-chloro-5-(trifluoromethyl)-3-pyridyl]-2-[4-[2-[(1-methylpyrazol-4-yl)amino]pyrimidin-5-yl]phenyl]acetamide] |
| 0.0001 to 10 µM | Cc1n[nH]c2ncc(-c3ccc(CC(=O)Nc4cncc(C(F)(F)F)c4)cc3F)cc12 [Compound P-0177, 2-[3-fluoro-4-(3-methyl-1H-pyrazolo[3,4-b]pyridin-5-yl)phenyl]-N-[5-(trifluoromethyl)-3-pyridyl]acetamide] |
| 0.0001 to 10 µM | COCCn1cc(Nc2ncc(-c3ccc(CC(=O)Nc4cnc(C)c(C(F)(F)F)c4)cc3)cn2)cn1 [Compound P-0179, 2-[4-[2-[[1-(2-methoxyethyl)pyrazol-4-yl]amino]pyrimidin-5-yl]phenyl]-N-[6-methyl-5-(trifluoromethyl)-3-pyridyl]acetamide] |
| 0.0001 to 10 µM | O=C(Cc1ccc(-c2cnc3[nH]c(-c4ccnc(N5CCOCC5)c4)cc3c2)cn1)Nc1ccnc(C(F)(F)F)c1 [Compound P-0181, 2-[5-[2-(2-morpholino-4-pyridyl)-1H-pyrrolo[2,3-b]pyridin-5-yl]-2-pyridyl]-N-[2-(trifluoromethyl)-4-pyridyl]acetamide] |
